In general, EC50 refers to the midpoint of the concentration-response curve. By CC50 is commonly meant the concentration that lowers cell viability or growth by half.

Results on four molecules are retold here after ChEMBL document CHEMBL1151418, “Breviane spiroditerpenoids from an extreme-tolerant Penicillium sp. isolated from a deep sea sediment sample” (J Nat Prod, 2009).

Where a name gives a salt, the structure may show the parent alone. Bounds are passed on as bounds.

One series concerns HIV-1 M:B_Lai. Nature of the series: Antiviral activity against HIV-1 M:B_Lai replication in human C8166 cells assessed as inhibition of p24 antigen expression level after 4 days by ELISA. It counts as functional, organism-based. As to conditions: Human immunodeficiency virus 1, LAI, C8166, 96 h.
The next series relates to HeLa. Nature of the series: Growth inhibition of human HeLa cells at 10 ug/mL after 4 hrs by MTT assay. The class given is functional. As to conditions: read-out: GI. On the technique in general: Tetrazolium assays rely on reduction of a dye to a coloured formazan, in cell work by metabolically active cells.
Series [1] is described as follows: Cytotoxicity against human C8166 cells after 4 days by MTT assay. The class given is cell-based.

`CC1=CC(=O)C=C[C@]2(C)[C@H]3[C@@H](O)C=C(C)[C@@]4(Cc5c(c(C)c(C)oc5=O)O4)[C@]3(C)CC[C@@H]12` [BREVIONE F]: in the series with HIV-1 M:B_Lai, the EC50 is 14.7 µM. Moreover, in the series with HeLa, the inhibition of growth at 10 µg/mL was 25.2%. The CC50 at 96 h in series [1] is more than 100 µM.
With `CC1=CC(=O)C=C[C@]2(C)[C@H]3[C@H](O)C=C(C)[C@@]4(Cc5c(c(C)c(C)oc5=O)O4)[C@]3(C)CC[C@@H]12` [BREVIONE G], the EC50 in the series with HIV-1 M:B_Lai is more than 50 µM. For the same molecule, in the series with HeLa, the inhibition of growth at 10 µg/mL came out at 44.9%.
In the case of `CC1=CC(=O)C[C@@H]2O[C@@H]3C=C(C)[C@@]45Oc6c(C)c(C)oc(=O)c6[C@@H]4O[C@H](O)[C@]54CC[C@@H]1[C@@]2(C)[C@@H]34` [BREVIONE H], in the series on HIV-1 M:B_Lai, the EC50 is more than 50 µM. The inhibition of growth at 10 µg/mL in the series on HeLa was 25.3%.
Turning to `CC(C)(C)NC(=O)[C@@H]1CN(Cc2cccnc2)CCN1C[C@@H](O)C[C@@H](Cc1ccccc1)C(=O)N[C@H]1c2ccccc2C[C@H]1O` [INDINAVIR SULFATE], the EC50 in the series with HIV-1 M:B_Lai is 0.00871 µM.
